Publication PMC5432571 (Frontiers in Molecular Neuroscience, 2017)
Read-outs that look alike come from different tables or passages of the source.

Experiments:
homomeric α1 GlyR = target: T1, homomeric α1 GlyR (Homo sapiens, UniProt P23415); assay: Whole-cell patch-clamp of glycine-induced currents, α1 GlyR expressed in CHO cells; format: cell-based; conditions: for inhibition at 30 µM / inhibition at 100 µM / inhibition at 300 µM: CHO, long protocol, read-out: inhibition of α1GlyR-mediated currents; for inhibition at 30 µM: NFA 30 μM; for inhibition at 100 µM: NFA 100 μM; for inhibition at 300 µM: NFA 300 μM
T1 construct: expressed in transfected cells; host or cells: CHO cells
T1 sequence (P23415 29-449 isoform P23415-2 limits assumed): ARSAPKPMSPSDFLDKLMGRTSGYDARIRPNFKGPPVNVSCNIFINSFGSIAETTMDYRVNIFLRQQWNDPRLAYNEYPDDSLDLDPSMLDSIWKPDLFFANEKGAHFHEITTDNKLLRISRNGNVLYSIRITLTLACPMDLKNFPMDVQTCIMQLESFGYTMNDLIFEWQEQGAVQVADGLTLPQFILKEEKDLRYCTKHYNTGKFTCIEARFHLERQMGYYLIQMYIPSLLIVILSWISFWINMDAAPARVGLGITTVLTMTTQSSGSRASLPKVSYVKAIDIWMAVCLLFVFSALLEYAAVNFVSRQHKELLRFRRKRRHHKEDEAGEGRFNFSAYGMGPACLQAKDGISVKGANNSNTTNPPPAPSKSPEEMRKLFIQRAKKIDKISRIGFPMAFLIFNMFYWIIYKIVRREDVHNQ
Experimental: (§1) The experiments were carried out on cultured Chinese hamster ovary (CHO) cells obtained from the American Type Tissue Culture Collection (ATCC, Molsheim, France) that were maintained in culture conditions as previously described (Mukhtarov et al., [2013]; Maleeva et al., [2015]).
(§2) One day before transfection, cells were plated on the cover slips (12 mm in diameter) and placed inside 35-mm cell culture dishes with 2 ml of medium. Transfection was performed using the Lipofectamine 3000 protocol (Life Technology, USA). To facilitate identification of transfected cells a green fluorescent protein (GFP) was added to the transfection mixture. For expression of functional heteromeric receptors, cells were simultaneously transfected with cDNAs of α and β subunits in the ratio 1:10. Three hours after the initial exposure of cells to the cDNAs the culture medium was replaced with that containing strychnine (1 μM), which prevents spontaneous activation of GlyRs. Electrophysiological recordings were performed in the fluorescent cells 24–72 h after transfection.
(§3) Whole-cell and outside-out recordings were performed at room temperature (20–25°C) using an EPC-9 amplifier (HEKA Elektronik, Germany). Cells were continuously superfused with external solution containing (mM): NaCl 140, CaCl2 2, KCl 2.8, MgCl2 4, HEPES 20, glucose 10; pH 7.4; 320–330 mOsm. Intracellular solution used for filling recording patch pipettes contained (mM): CsCl 140, CaCl2 6, MgCl2 2, MgATP 2, NaGTP 0.4, HEPES/CsOH 10, BAPTA (tetrapotassium salt) 2; pH 7.3; 290 mOsm. Two different protocols of solutions application were used in this study. […] A “ramp protocol” implies the gradual change of Vhold alternately from −80 to +80 mV and from +80 to −80 mV during 1 s, Vhold was fixed at −80 or +80 mV at the beginning and at the end of the ramp for 500 ms (Figure 2B).
(§4) Recording pipettes were pulled from borosilicate glass capillaries (Harvard Apparatus Ltd, USA) and had resistances of 5–10 MOhm. For the rapid replacement of the solutions, the fast application system was used. Three parallel rectangular tubes (100 × 100 μm) were positioned 40–50 μm above the recorded cell. The movement of the tubes was controlled by a computer-driven fast exchange system (SF 77A Perfusion Fast-Step, Warner, USA) allowing a 10–90% solution exchange in 3–5 ms, as measured by open electrode controls (1/10 external solution/water). Cells with low input resistance (<150 MOhm) and a rapid run-down (>30% with repetitive application) were excluded from analysis.
(§5) Electrophysiological recordings were performed using PatchMaster (HEKA Electronic, Germany) software.
(§6) The fractional electrical distance from the external side of the membrane (δ) at which bound NFA blocked the current was calculated using the Woodhull equation: IC50(V)=IC50(0) exp (−δFV/RT), where IC50(V) is IC50 at the given membrane potential, IC50(0) – at 0 mV, V – membrane potential and F, R, T have their usual meanings. δ was determined from a plot of IC50 values against membrane potential.

α2 GlyR = target: T2, α2 GlyR (Homo sapiens, UniProt P23416); assay: Whole-cell patch-clamp of glycine-induced currents, α2 GlyR expressed in CHO cells; format: cell-based; conditions: for glycine-evoked current, % from the control: NFA 10 μM
T2 construct: expressed in transfected cells; host or cells: CHO cells
T2 sequence (P23416 28-452 isoform P23416-2 limits assumed): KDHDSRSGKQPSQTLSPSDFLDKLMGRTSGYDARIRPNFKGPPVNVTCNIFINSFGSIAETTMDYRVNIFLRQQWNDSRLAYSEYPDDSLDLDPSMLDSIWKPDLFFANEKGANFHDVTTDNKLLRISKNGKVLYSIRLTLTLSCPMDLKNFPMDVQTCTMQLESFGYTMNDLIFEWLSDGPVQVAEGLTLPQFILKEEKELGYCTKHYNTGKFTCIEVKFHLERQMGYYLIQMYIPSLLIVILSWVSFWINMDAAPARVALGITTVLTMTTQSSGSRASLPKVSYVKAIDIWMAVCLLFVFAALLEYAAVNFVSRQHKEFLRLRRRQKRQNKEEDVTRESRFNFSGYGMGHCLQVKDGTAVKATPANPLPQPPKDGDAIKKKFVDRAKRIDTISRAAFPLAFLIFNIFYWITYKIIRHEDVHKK
Experimental: as §1, §2, §3, §4, §5, §6

[1] = +30 mV, glycine 30 μM, representative, read-out: NFA IC50 (representative IC50 curve)
[2] = +30 mV, glycine 100 μM, representative, read-out: NFA IC50 (representative IC50 curve)
[3] = +80 mV, glycine 30 μM, ramp protocol, mean ± SEM, read-out: IC50 of NFA
[4] = +80 mV, glycine 30 μM, representative, read-out: NFA IC50 (representative IC50 curve)
[5] = +80 mV, glycine 100 μM, ramp protocol, mean ± SEM, read-out: IC50 of NFA
[6] = +80 mV, glycine 100 μM, representative, read-out: NFA IC50 (representative IC50 curve)
[7] = membrane potential 30 mV, glycine 30 μM
[8] = membrane potential 50 mV, glycine 30 μM
[9] = membrane potential 80 mV, glycine 30 μM
[10] = membrane potential −50 mV, glycine 30 μM
[11] = membrane potential −70 mV, glycine 30 μM
[12] = membrane potential −80 mV, glycine 30 μM
[13] = overall statement in discussion
[14] = −30 mV, glycine 30 μM, representative, read-out: NFA IC50 (representative IC50 curve)
[15] = −30 mV, glycine 100 μM, representative, read-out: NFA IC50 (representative IC50 curve)
[16] = −80 mV, glycine 30 μM, ramp protocol, mean ± SEM, read-out: IC50 of NFA
[17] = −80 mV, glycine 30 μM, representative, read-out: NFA IC50 (representative IC50 curve)
[18] = −80 mV, glycine 100 μM, representative, read-out: NFA IC50 (representative IC50 curve)

O=C(O)c1cccnc1Nc1cccc(C(F)(F)F)c1 [NFA, Niflumic acid]
IC50 (homomeric α1 GlyR; [1]): 218 µM
IC50 (homomeric α1 GlyR; [2]): 107 µM
IC50 (homomeric α1 GlyR; [3]): 197 ± 18 µM
IC50 (homomeric α1 GlyR; [4]): 178 µM
IC50 (homomeric α1 GlyR; [5]): 90 ± 8 µM
IC50 (homomeric α1 GlyR; [6]): 94 µM
inhibition at 30 µM (homomeric α1 GlyR; Vhold +30 mV, glycine 30 μM): 16 ± 7%
inhibition at 30 µM (homomeric α1 GlyR; Vhold −30 mV, glycine 30 μM): 3 ± 4%
inhibition at 100 µM (homomeric α1 GlyR; Vhold +30 mV, glycine 30 μM): 43 ± 11%
inhibition at 100 µM (homomeric α1 GlyR; Vhold −30 mV, glycine 30 μM): 16 ± 6%
inhibition at 300 µM (homomeric α1 GlyR; Vhold +30 mV, glycine 30 μM): 75 ± 4%
inhibition at 300 µM (homomeric α1 GlyR; Vhold −30 mV, glycine 30 μM): 48 ± 9%
Hill coefficient (nH) of NFA interaction (homomeric α1 GlyR; glycine 30 μM): 1.5 ± 0.11
decrease of IC50 at +80 mV versus −80 mV (homomeric α1 GlyR; glycine 100 μM): about 3 fold
Hill coefficient (nH) of NFA interaction (homomeric α1 GlyR; [7]): 1.87 ± 0.02
Hill coefficient (nH) of NFA interaction (homomeric α1 GlyR; [8]): 1.55 ± 0.08
Hill coefficient (nH) of NFA interaction (homomeric α1 GlyR; [9]): 1.28 ± 0.07
Hill coefficient (nH) of NFA interaction (homomeric α1 GlyR; [10]): 1.7 ± 0.08
Hill coefficient (nH) of NFA interaction (homomeric α1 GlyR; [11]): 1.65 ± 0.08
Hill coefficient (nH) of NFA interaction (homomeric α1 GlyR; [12]): 1.56 ± 0.07
Hill coefficient (nH) of NFA inhibitory action (homomeric α1 GlyR; [13]): ~1.5
IC50 (homomeric α1 GlyR; [14]): 256 µM
IC50 (homomeric α1 GlyR; [15]): 171 µM
IC50 (homomeric α1 GlyR; [16]): 315 ± 30 µM
IC50 (homomeric α1 GlyR; [17]): 272 µM
IC50 (homomeric α1 GlyR; −80 mV, glycine 100 μM, ramp protocol, mean ± SEM, read-out: IC50 of NFA): 270 ± 26 µM
IC50 (homomeric α1 GlyR; [18]): 209 µM
IC50 (α2 GlyR; [1]): 17 µM
IC50 (α2 GlyR; [2]): 12 µM
IC50 (α2 GlyR; [3]): 9 ± 2 µM
IC50 (α2 GlyR; [4]): 12 µM
IC50 (α2 GlyR; [5]): 9 ± 2 µM
IC50 (α2 GlyR; [6]): 7 µM
inhibition at 10 µM (α2 GlyR; CHO): ~50%
glycine-evoked current, % from the control (α2 GlyR; MP +80 mV): 43 ± 5%
glycine-evoked current, % from the control (α2 GlyR; MP −80 mV): 89 ± 4%
Hill coefficient (nH) of NFA interaction (α2 GlyR; [7]): 1.1 ± 0.14
Hill coefficient (nH) of NFA interaction (α2 GlyR; [8]): 1 ± 0.14
Hill coefficient (nH) of NFA interaction (α2 GlyR; membrane potential 70 mV, glycine 30 μM): 1 ± 0.13
Hill coefficient (nH) of NFA interaction (α2 GlyR; [9]): 0.97 ± 0.09
Hill coefficient (nH) of NFA interaction (α2 GlyR; [10]): 1.14 ± 0.12
Hill coefficient (nH) of NFA interaction (α2 GlyR; [11]): 1.04 ± 0.08
Hill coefficient (nH) of NFA interaction (α2 GlyR; [12]): 1.05 ± 0.06
Hill coefficient (nH) of NFA inhibitory action (α2 GlyR; [13]): ~1
IC50 (α2 GlyR; read-out: IC50 of NFA): 133 ± 20 µM
IC50 (α2 GlyR; [14]): 75 µM
IC50 (α2 GlyR; [15]): 39 µM
IC50 (α2 GlyR; [16]): 166 ± 28 µM
IC50 (α2 GlyR; [17]): 155 µM
IC50 (α2 GlyR; [18]): 100 µM
